Values of other authors as cited in patent US20030212112A1, “Method for administering a phosphodiesterase 4 inhibitor” (SmithKline Beecham Corporation, priority 1999, published 2003).

Conditions: clinical studies / indications reported in background

For `CCCCn1c(=O)c2c(ncn2CC(C)=O)n(CCCC)c1=O` [denbufylline], the side effects is listed as “may include pyrosis, nausea and emesis”.

For `COc1ccc(C2CNC(=O)C2)cc1OC1CCCC1` (centres unmarked) [rolipram], the side effects is given as “psychotropic activity and produces gastrointestinal effects”.
